Columns and labels:
[1] = Plasma clearance of epirubicin following intravenous epirubicin at 75-90 mg.m-2 dose in cancer patients; format: ADME, organism-based; details: human, in vivo
[2] = Plasma clearance of epirubicin following intravenous epirubicin at 60 mg.m-2 dose in cancer patients; format: ADME, organism-based; details: human, in vivo
[3] = Recovery of epirubicin following intravenous epirubicin at 4 mg.Kg-1 dose in rat; format: ADME, organism-based, SD, Plasma; details: in vivo
[4] = Plasma clearance of epirubicin following intravenous epirubicin at 40-135 mg.m-2 dose in cancer patients; format: ADME, organism-based; details: human, in vivo
[5] = Decrease in albumin due to persistent proteinuria following reference intravenous epirubicin at 1 mg.Kg-1 per week in rat; format: toxicity, organism-based, SD, Serum; details: in vivo
[6] = Detection of epirubicin in plasma following single intravenous epirubicin at 10 mg.Kg-1 dose in female mouse bearing colon tumor; format: ADME, organism-based, BALB/c; details: in vivo
[7] = Volume of distribution at steady state following intravenous epirubicin at 150 mg.m-2 dose in patients with advanced cancer; format: ADME, organism-based; details: human, plasma, read-out: Vss
[8] = Plasma clearance of epirubicin following intravenous epirubicin at 25-35 mg.m-2 dose in cancer patients; format: ADME, organism-based; details: human, in vivo
[9] = Detection of epirubicin in heart following single intravenous epirubicin at 10 mg.Kg-1 dose in female mouse bearing colon tumor; format: ADME, organism-based, BALB/c; details: in vivo
[10] = Plasma clearance of epirubicin following intravenous epirubicin solution at 1 mg.Kg-1 dose in rabbit; format: ADME, organism-based, Oryctolagus cuniculus, Blood; details: both, New Zealand White
[11] = Plasma clearance of epirubicin following intravenous epirubicin at 20 mg.m-2 dose in cancer patients; format: ADME, organism-based; details: human, in vivo
[12] = Terminal half-life of epirubicinol following intravenous epirubicin at 3 mg.Kg-1 dose in rabbit; format: ADME, organism-based, Oryctolagus cuniculus, New Zealand White, Plasma; details: in vivo
[13] = AUC of epirubicin following intravenous epirubicin solution at 1 mg.Kg-1 dose in rabbit; format: ADME, organism-based, Oryctolagus cuniculus; details: both, New Zealand White, blood
[14] = Half-life of terminal elimination phase of epirubicin following intravenous epirubicin at 20 mg.m-2 dose in cancer patients; format: ADME, organism-based; details: human, plasma
[15] = Half-life of terminal elimination phase of epirubicin following intravenous epirubicin at 40-135 mg.m-2 dose in cancer patients; format: ADME, organism-based; details: human, plasma
[16] = Biliary excretion of epirubicin following epirubicin at 50 mg.m-2 dose in cancer patients; format: ADME, organism-based; details: human, bile, at 50 mg/m2, read-out: Compound recovery
[17] = Plasma clearance of epirubicin following intrahepatic epirubicin solution at 1 mg.Kg-1 dose in rabbit; format: ADME, organism-based, Oryctolagus cuniculus, Blood; details: both, New Zealand White
[18] = Volume of distribution as steady state of epirubicin following intravenous epirubicin at 70 mg.m-2 dose in cancer patients; format: ADME, organism-based, Plasma; details: human, in vivo
[19] = Volume of distribution of epirubicin following intrahepatic epirubicin solution at 1 mg.Kg-1 dose in rabbit; format: ADME, organism-based, Oryctolagus cuniculus; details: both, New Zealand White, blood
[20] = Terminal half-life of epirubicinol following intravenous epirubicin at 1 mg.Kg-1 dose in rabbit; format: ADME, organism-based, Oryctolagus cuniculus, New Zealand White, Plasma; details: in vivo
[21] = Volume of distribution as steady state of epirubicin following intravenous epirubicin at 75 mg.m-2 dose in cancer patients; format: ADME, organism-based, Plasma; details: human, in vivo
[22] = Plasma clearance of epirubicin following intrahepatic epirubicin emulsion at 1 mg.Kg-1 dose in rabbit; format: ADME, organism-based, Oryctolagus cuniculus, Blood; details: both, New Zealand White
[23] = Cumulative urinary excretion of epirubicin and its metabolites following epirubicin at 75-90 mg.m-2 dose in cancer patients; format: ADME, organism-based, Urine; details: human, in vivo
[24] = Detection of epirubicin in tumor following single intravenous epirubicin at 10 mg.Kg-1 dose in female mouse bearing colon tumor; format: ADME, organism-based, BALB/c, Neoplasm; details: in vivo
[25] = Half-life of epirubicin in heart following single intravenous epirubicin at 10 mg.Kg-1 dose in female mouse bearing colon tumor; format: ADME, organism-based; details: BALB/c
[26] = Terminal half-life of epirubicin following intrahepatic epirubicin emulsion at 1 mg.Kg-1 dose in rabbit; format: ADME, organism-based, Oryctolagus cuniculus; details: both, New Zealand White, blood
[27] = Initial phase half-life of epirubicin following intravenous epirubicin at 60 mg.m-2 dose in cancer patients; format: ADME, organism-based, Plasma; details: human, in vivo
[28] = Volume of distribution of epirubicin following intravenous epirubicin emulsion at 1 mg.Kg-1 dose in rabbit; format: ADME, organism-based, Oryctolagus cuniculus; details: both, New Zealand White, blood

With `COc1cccc2c1C(=O)c1c(O)c3c(c(O)c1C2=O)C[C@@](O)(C(=O)CO)C[C@@H]3O[C@H]1C[C@H](N)[C@@H](O)[C@H](C)O1.Cl` [EPIRUBICIN HYDROCHLORIDE] the CLp [1] was 94.9 L.h-1.m-2, the CLp [2] was 43.1 L.h-1.m-2 and the Compound recovery [3] was 56 10^-9M. The CLp [4] was 50.9 L.h-1.m-2, the ALB_CHANGE [5] was “OUTCOME = Decreased” and the Compound recovery [6] was “OUTCOME = Observed”. The Vd [7] was 21 L/kg, the CLp [8] was 41.5 L.h-1.m-2 and the Compound recovery [9] was “OUTCOME = Observed”. For the same compound, the clearance [10] was 813 mL/min, the CLp [11] was 71.5 L.h-1.m-2 and the t1/2 [12] was 1.66 h. The AUC [13] was 180 ng·h/mL, the half-life [14] was 13.9 h and the half-life [15] was 20.6 h. It also gave a dose excreted at 96 h [16] of 21.9%, a CL/F [17] of 2700 mL/min and a Vss [18] of 2332 L.m-2. For the same compound, the Vd [19] was 129 L/kg, the t1/2 [20] was 0.63 h and the Vss [21] was 2964 L.m-2. The CL/F [22] was 3780 mL/min, the Radiolabel recovery [23] was 10.7% and the Compound recovery [24] was “OUTCOME = Observed”. The half-life [25] was 10.6 h, the half-life [26] was 0.868 h and the t1/2 [27] was 2.92 min. It also gave a Vd [28] of 18.8 L/kg.

From ChEMBL document CHEMBL3508140 (2016)
